Experimental data published in ChEMBL document CHEMBL5678816, “A Next-Generation TRK Kinase Inhibitor Overcomes Acquired Resistance to Prior TRK Kinase Inhibition in Patients with TRK Fusion-Positive Solid Tumors” (Cancer Discov, 2017).
Activity calls are given as the source filed them. The calls are words filed in the database; no cut-off is given here.

Assays:
[1] = test system: NIH3T3; test: In vivo inhibition of […] in nu/nu NCr mouse implanted with mouse NIH3T3 cells harboring extracellular domain deleted […] assessed as reduction in […] phosphorylation at 60 mg/kg, po administered once daily for 3 days and measured after 2 hrs post last dose by ELISA; format: functional, organism-based; conditions: time 3.0 day
[2] = Inhibition of N-terminal 3FLAG-tagged ETV6-TRKC G623R mutant (unknown origin) expressed in NIH3T3 cells assessed as ERK1/2 phosphorylation incubated for 1 hrs by flow cytometric analysis; format: cell-based, Homo sapiens
[3] = test system: NIH3T3; test: In vivo inhibition of […] in nu/nu NCr mouse implanted with mouse NIH3T3 cells harboring extracellular domain deleted […] assessed as reduction in […] phosphorylation at 10 to 100 mg/kg, po administered twice daily for 3 days and measured after 2 hrs post last dose by ELISA; format: functional, organism-based; conditions: dose 10-100 mg/kg, time 3.0 day
[4] = test system: NIH3T3; test: Antitumor activity against mouse NIH3T3 cells harboring extracellular domain deleted TRKA implanted in nu/nu NCr mouse assessed as inhibition of tumor growth at 60 mg/kg, po administered once daily for 10 days; format: functional, organism-based; conditions: time 10.0 day
[5] = Inhibition of N-terminal 6His-tagged TRKC G696A mutant (506 to 829 residues) (unknown origin) expressed in Escherichia coli incubated for 60 mins by [gamma-33P]-ATP based TopCount NXT liquid scintillation assay; design: species or system Homo sapiens
[6] = Inhibition of N-terminal 3FLAG-tagged ETV6-TRKC G696A mutant (unknown origin) expressed in NIH3T3 cells assessed as ERK1/2 phosphorylation incubated for 1 hrs by flow cytometric analysis; format: cell-based, Homo sapiens
[7] = test system: KM12; test: Antitumor activity against human KM12 cells harboring TPM3-TRKA fusion protein xenografted in nu/nu NCr mouse assessed as inhibition of tumor growth at 60 mg/kg, po administered once daily for 11 days; format: functional, organism-based; conditions: time 11.0 day
[8] = Inhibition of human extracellular domain deleted TRKA V573M mutant expressed in mouse NIH3T3 cells assessed as reduction in TRKA phosphorylation incubated for 1 hrs by ELISA; format: cell-based; conditions: NIH3T3, 1 h
[9] = Toxicity in nu/nu NCr mouse implanted with mouse NIH3T3 cells harboring extracellular domain deleted TRKA assessed as body weight loss at 60 mg/kg, po administered once daily for 10 days relative to control; format: organism-based; conditions: in vivo, 240 h, time 10 day
[10] = Inhibition of N-terminal 3FLAG-tagged wild type ETV6-TRKC (unknown origin) expressed in NIH3T3 cells assessed as ERK1/2 phosphorylation incubated for 1 hrs by flow cytometric analysis; format: cell-based, Homo sapiens
[11] = Toxicity in nu/nu NCr mouse xenografted with human KM12 cells harboring TPM3-TRKA fusion protein assessed as body weight loss at 60 mg/kg, po administered once daily for 11 days relative to control; format: organism-based; conditions: in vivo, 264 h, time 11 day
[12] = Inhibition of human extracellular domain deleted TRKA G667S mutant expressed in mouse NIH3T3 cells assessed as reduction in TRKA phosphorylation incubated for 1 hrs by ELISA; format: cell-based; conditions: NIH3T3, 1 h
[13] = Toxicity in nu/nu NCr mouse implanted with mouse NIH3T3 cells harboring extracellular domain deleted TRKA G595R mutant assessed as body weight loss at 60 mg/kg, po administered once daily for 12 days relative to control; format: organism-based; conditions: in vivo, 288 h, time 12 day

- IC50 [2]: > 10000 nM
- IC50 [5]: 4.5 nM
- IC50 [6]: 172 nM
- IC50 [8]: 1020 nM
- IC50 [10]: 18.8 nM
- IC50 [12]: 70 nM
Compound: O=C(Nc1cnn2ccc(N3CCC[C@@H]3c3cc(F)ccc3F)nc12)N1CC[C@H](O)C1 [LAROTRECTINIB]
- inhibition [1]: Active
- inhibition [3]: Active
- Activity [4]: Active
- Activity [7]: Active
- Activity [9]: < 5%
- Activity [11]: < 5%
- Activity [13]: < 5%
